tested on: KQT1 channel; assay: Activity against KQT1 in Xenopus oocytes (two-microelectrode voltage clamp); assay type: cell-based, Caenorhabditis elegans; set-up: dose or concentration left out as unconfirmed; settings: KQT1 expressed in Xenopus oocytes; slowly activated potassium current
Method: To test the ct of IKS channel blockers on the KQT1 channel, electrophysiological studies were carried out on Xenopus oocytes which express the KQT1 channel (specific IKS channel of the nematode Caenorhabditis elegans). An adult female frog (Xenopus laevis) was […] oocytes of all development stages were removed from the ovarian bags. Oocytes of the development stages V and VI were selected; using a nanoliter injector mounted in a micromanipulator, 10 ng of the KQT1-specific m-RNA were injected into each oocyte. After 1-4 days, sufficient KQT1 channels were expressed for it to be possible to measure the corresponding currents. For measuring the slowly activated potassium currents under constant intracellular conditions, the two-microelectrode voltage clamp method was employed. This method is based on operating with 2 intracellular microelectrodes; the first electrode measures the membrane potential against a reference electrode, the second electrode is used to inject current which is necessary to maintain a desired potential. During the measurement, the holding potential was adjusted to -80 mV, which corresponds to the open-circuit membrane potential. The electrophysiological measuring stand comprised a vibration-damped experiment table on which were mounted a purpose-made measuring chamber, 2 micromanipulators, in each case with a preamplifier and a holder for injection microelectrodes, and a stereomicroscope. The complete measuring stand was surrounded by a Faraday cage to minimize electrical disturbances during the measurement. During the measurement, the oocyte was suspended in a solution of ND96 buffer. To activate the voltage-dependent IKS channel, the oocyte membrane was depolarized by a voltage jump from the holding potential (-80 mV) to 0 mV, and this state was maintained for 10 seconds before the holding potential was reestablished. The time profile of the measuring protocol was repeated every 45 s. During the depolarization phase, the slowly activated potassium current was measured.

| Structure (SMILES) | Inhibition |
| --- | --- |
| CCS(=O)(=O)N(C)C1CCCCc2ccc(F)cc21 (stereo not drawn) | 78% |
| CCS(=O)(=O)N(C)C1CC(C)(C)Oc2cc(Cl)c(F)cc21 (stereo not drawn) [7-CHLORO-4-N- ETHYLSULFONYL-N- METHYLAMINO-6- FLUORO-2,2- DIMETHYLCHROMANE] | 89% |
| CCS(=O)(=O)N(CCCC(F)(F)F)C1CC(C)(C)Oc2cc(Cl)c(Cl)cc21 (stereo not drawn) [6,7-DICHLORO-4-[N- ETHYLSULFONYL-N- (4,4,4-TRIFLUORO- BUTYL)AMINO]-2,2- DIMETHYLCHROMANE] | 88% |
| CCS(=O)(=O)N(C)C1c2cc(C#N)ccc2OC(C)(C)C1O (stereo not drawn) [6-CYANO-4-TRANS-(N- ETHYLSULFONYL-N- METHYLAMINO)-3 HYDROXY-2,2- DIMETHYLCHROMANE] | 40% |
| CCS(=O)(=O)N(CC(=O)NCCN(C)Cc1ccccc1)C1CC(C)(C)Oc2ccc(F)cc21 (stereo not drawn) [N-[2-(BENZYL-METHYL- AMINO)-ETHYL]-2- [ETHANESULFONYL-(6- FLUORO-2,2-DIMETHYL- CHROMAN-4-YL)-AMINO]- ACETAMIDE] | 36% |
| CCS(=O)(=O)N(C)C1CC(C)(C)Oc2cc(OC)c(OC)cc21 (stereo not drawn) [4-N-ETHYLSULFONYL-N- METHYLAMINO-6,7 DIMETHOXY-2,2- DIMETHYLCHROMANE] | 30% |
| CCS(=O)(=O)N(CC(=O)NCCN(C)C)C1CC(C)(C)Oc2ccc(F)cc21 (stereo not drawn) [N-(2-DIMETHYLAMINO- ETHYL)-2-[ETHANE- SULFONYL-(6-FLUORO- 2,2-DIMETHYL-CHROMAN- 4-YL)-AMINO]- ACETAMIDE] | 22% |
| CN(C1=CC(C)(C)Oc2ccc(OCCCC(F)(F)F)cc21)S(C)(=O)=O [N-[2,2-DIMETHYL-6-(4,4,4- TRIFLUOROBUTOXY)-2H- CHROMEN-4-YL]-N- METHYL- METHANESULFONAMIDE] | 92% |
| CCS(=O)(=O)N(CC(=O)Nc1ccncc1)C1CC(C)(C)Oc2ccc(F)cc21 (stereo not drawn) [2-[ETHANESULFONYL-(6- FLUORO-2,2-DIMETHYL- CHROMAN-4-YL)-AMINO]- N-PYRIDIN-4-YL- ACETAMIDE] | 35% |

From US6335363B1, “Use of inhibitors of the KQTI channel and methods of controlling and treating diseases caused by helminths and ectoparasites” (Aventis Pharma Deutschland GmbH, priority 1998, dated 2002)
